# Test system: SARS-CoV-2
# Assay type: cell-based
smiles,measurement,value
"CC(N)C12CC3CC(CC(C3)C1)C2 (stereo not shown) [Rimantadine, rimantadine]",% of culture cells infected,≥ 80%

# Reference: article PMC8537953 (Viruses, 2021)
